Results from US11160871B2, “SSTR-targeted conjugates and particles and formulations thereof” (TARVEDA THERAPEUTICS, INC., priority 2015, dated 2021).
pIC50: −log10 of the molar value.

What was measured:
NCI-H69 SCLC tumors = assay: H69 tumor DM-1 levels by LC/MS-MS; assay type: in vivo, mice; settings: 1 mg/kg; 24 hour time point
Method: To examine the ability of conjugates of the present invention to accumulate in tumors, a murine cancer model was used. All mice were treated in accordance with the OLAW Public Health Service Policy on Human Care and Use of Laboratory Animals and the ILAR Guide for the Care and Use of Laboratory Animals. All in vivo studies were conducted following the protocols approved by the Blend Therapeutics Institutional Animal Care and Use Committee. Animals were inoculated with 2.5×10^6 NCI-H69 SCLC (small cell lung cancer) cells in 1:1 RPMI 1640 (Invitrogen, Carlsbad, Calif.)/Matrigel® (BD Biosciences, San Jose, Calif.) via subcutaneous injection to the right flank. Tumors were allowed to reach an approximate volume of ˜500 mm3. Animals were then randomized into treatment groups of 3 animals per time point and were dosed at 1 mg/kg (10% propylene glycol in water for injection for free conjugates, or 10% sucrose for nanoparticles), or 0.4 mg/kg for DM-1 (10% propylene glycol in water for injection). The 24 hour time point was used as a benchmark across conjugates.
Tumor DM-1 levels were determined by liquid chromatography mass spectrometry (LC/MS-MS). Four volumes of 5 mM 6-maleimidohexanoic acid to 1 part tumor v/w was added and homogenized for about 10-15 seconds with a handheld homogenizer. 10 μL of 500 mM Tris(2-carboxyethyl)phosphine was added to 100 uL of tumor homogenate, mixed well and incubated at room temperature for about 5-15 min. 200-300 uL of acetonitrile was used to precipitate proteins in tumor homogenate, samples were centrifuged for 5 min, and supernatant was injected onto LC/MS-MS system for DM-1 analysis.

CYP1A2 = CYP1A2 (Homo sapiens, UniProt P05177); assay: CYP inhibition; assay type: in vitro ADME
Method: (§1) In a further study, the potential for Conjugate 57 to inhibit cytochrome P450 (CYP) was tested across 7 isozymes of CYP enzymes. […] The data also indicate Conjugate 57 presents no risk for causing drug-drug interactions (DDIs) by inhibiting the CYP clearance of other drugs. Lack of DDIs is critical when developing combination therapies.

CYP2D6 = CYP2D6 (Homo sapiens, UniProt P10635); assay: CYP inhibition; assay type: in vitro ADME
Method: as §1

CYP2C19 = CYP2C19 (Homo sapiens, UniProt P33261); assay: CYP inhibition; assay type: in vitro ADME
Method: as §1

CYP2B6 = CYP2B6 (Homo sapiens, UniProt P20813); assay: CYP inhibition; assay type: in vitro ADME
Method: as §1

CYP2C8 = CYP2C8 (Homo sapiens, UniProt P10632); assay: CYP inhibition; assay type: in vitro ADME
Method: as §1

CYP3A4 = CYP3A4 (Homo sapiens, UniProt P08684); assay: CYP inhibition; assay type: in vitro ADME
Method: as §1

CYP2C9 = CYP2C9 (Homo sapiens, UniProt P11712); assay: CYP inhibition; assay type: in vitro ADME
Method: as §1

[1] = tested on: MCF-7 breast cancer cells; assay: MCF-7 cell proliferation; assay type: cell-based
Method: In an in vitro study, Conjugate 57 is given to MCF-7 breast cancer cells. Cell proliferation of the MCF-7 cells are measured.

hERG = hERG (Homo sapiens, UniProt Q12809); assay: IonWorks Quattro hERG assay; assay type: cell-based; settings: up to 10 uM
SSTR2 = SSTR2 (Homo sapiens, UniProt P30874); assay: SSTR2 receptor internalization in H524-MD tumor xenograft (IHC); assay type: in vivo; set-up: expressed in transfected cells
Method: SSTR2 receptor internalization was studied using Conjugate 57 in a highly expressing SSTR2 positive (SSTR2+) tumor xenograft: H524_MD tumor xenograft. Vehicle (0.1% Solutol/5% Mannitol), Conjugate 57 at 2 mg/kg, scrambled control (BT-984) at 2 mg/kg, and Octreotide at 1.4 mg/kg (ligand alone) were given to SSTR2+H524-MD tumor xenografts (n=3/group). Timepoints—0 hr (Vehicle), 15 mins, 1 hr, 4 hr, 24 hr and 72 hrs. SSTR2 scoring was done by immunohistochemistry (IHC) staining.

[2] = tested on: panel of GPCRs (119 targets); assay: Off-target binding to a panel of GPCRs; settings: 1 uM concentration
Method: To further study the off-target binding of Conjugate 57, the binding of Conjugate 57 to a panel of GPCRs (119 targets) was measured at 1 uM concentration. Conjugate 57 has no activity against the panel of GPCRs.

[3] = Allometric scaling of clearance; set-up: species or system human; settings: from mouse, rat and dog
[4] = 2 mg/kg, H524-MD tumor xenografts

SSTR2, sequence (P30874 whole entry): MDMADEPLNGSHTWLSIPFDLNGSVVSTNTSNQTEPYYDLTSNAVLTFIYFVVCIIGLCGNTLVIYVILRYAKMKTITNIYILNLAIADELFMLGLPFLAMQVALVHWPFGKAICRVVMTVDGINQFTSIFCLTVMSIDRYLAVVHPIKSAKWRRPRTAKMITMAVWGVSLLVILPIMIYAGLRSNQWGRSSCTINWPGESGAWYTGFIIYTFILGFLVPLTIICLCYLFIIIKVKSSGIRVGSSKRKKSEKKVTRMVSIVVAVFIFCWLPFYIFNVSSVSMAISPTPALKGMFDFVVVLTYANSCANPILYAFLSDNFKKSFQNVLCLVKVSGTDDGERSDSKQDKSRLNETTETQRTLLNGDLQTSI
CYP3A4, sequence (P08684 whole entry): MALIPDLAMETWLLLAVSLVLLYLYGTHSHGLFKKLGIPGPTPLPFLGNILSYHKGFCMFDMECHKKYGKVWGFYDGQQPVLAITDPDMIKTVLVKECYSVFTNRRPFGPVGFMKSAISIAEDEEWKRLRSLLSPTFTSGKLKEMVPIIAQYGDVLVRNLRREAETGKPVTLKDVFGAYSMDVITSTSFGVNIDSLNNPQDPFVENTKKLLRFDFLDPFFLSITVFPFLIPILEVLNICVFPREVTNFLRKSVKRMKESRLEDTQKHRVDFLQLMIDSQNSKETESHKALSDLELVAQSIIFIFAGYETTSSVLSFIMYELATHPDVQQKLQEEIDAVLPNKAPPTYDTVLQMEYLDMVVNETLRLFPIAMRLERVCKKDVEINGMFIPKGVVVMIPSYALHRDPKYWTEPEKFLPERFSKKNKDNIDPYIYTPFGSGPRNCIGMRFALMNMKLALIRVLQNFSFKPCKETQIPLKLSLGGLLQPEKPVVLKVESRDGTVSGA
CYP2D6, sequence (P10635 whole entry): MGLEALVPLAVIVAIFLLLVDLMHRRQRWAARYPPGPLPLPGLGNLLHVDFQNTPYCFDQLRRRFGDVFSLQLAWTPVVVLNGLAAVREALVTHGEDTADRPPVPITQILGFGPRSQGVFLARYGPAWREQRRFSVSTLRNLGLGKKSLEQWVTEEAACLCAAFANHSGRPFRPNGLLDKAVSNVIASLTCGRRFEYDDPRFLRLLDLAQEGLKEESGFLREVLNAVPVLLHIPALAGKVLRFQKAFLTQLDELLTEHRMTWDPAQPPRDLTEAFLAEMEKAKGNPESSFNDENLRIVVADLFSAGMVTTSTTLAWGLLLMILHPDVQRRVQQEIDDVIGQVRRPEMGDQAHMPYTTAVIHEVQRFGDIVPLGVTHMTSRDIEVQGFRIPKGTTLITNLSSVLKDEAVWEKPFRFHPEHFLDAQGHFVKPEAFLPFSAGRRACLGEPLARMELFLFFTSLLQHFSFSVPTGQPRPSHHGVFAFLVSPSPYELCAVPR
CYP2C19, sequence (P33261 whole entry): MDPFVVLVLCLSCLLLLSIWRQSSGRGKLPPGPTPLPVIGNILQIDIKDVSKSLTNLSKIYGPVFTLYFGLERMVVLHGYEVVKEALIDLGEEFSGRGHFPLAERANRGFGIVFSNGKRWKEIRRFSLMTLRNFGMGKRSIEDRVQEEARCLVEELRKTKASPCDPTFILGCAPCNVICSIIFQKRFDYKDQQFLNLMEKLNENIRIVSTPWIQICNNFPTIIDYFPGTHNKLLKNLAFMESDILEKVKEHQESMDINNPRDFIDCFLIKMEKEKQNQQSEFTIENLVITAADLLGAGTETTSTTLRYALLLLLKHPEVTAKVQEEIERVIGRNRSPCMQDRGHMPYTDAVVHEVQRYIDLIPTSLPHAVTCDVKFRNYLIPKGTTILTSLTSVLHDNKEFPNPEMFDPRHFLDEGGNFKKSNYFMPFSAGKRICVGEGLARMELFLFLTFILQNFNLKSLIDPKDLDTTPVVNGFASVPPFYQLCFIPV
CYP1A2, sequence (P05177 whole entry): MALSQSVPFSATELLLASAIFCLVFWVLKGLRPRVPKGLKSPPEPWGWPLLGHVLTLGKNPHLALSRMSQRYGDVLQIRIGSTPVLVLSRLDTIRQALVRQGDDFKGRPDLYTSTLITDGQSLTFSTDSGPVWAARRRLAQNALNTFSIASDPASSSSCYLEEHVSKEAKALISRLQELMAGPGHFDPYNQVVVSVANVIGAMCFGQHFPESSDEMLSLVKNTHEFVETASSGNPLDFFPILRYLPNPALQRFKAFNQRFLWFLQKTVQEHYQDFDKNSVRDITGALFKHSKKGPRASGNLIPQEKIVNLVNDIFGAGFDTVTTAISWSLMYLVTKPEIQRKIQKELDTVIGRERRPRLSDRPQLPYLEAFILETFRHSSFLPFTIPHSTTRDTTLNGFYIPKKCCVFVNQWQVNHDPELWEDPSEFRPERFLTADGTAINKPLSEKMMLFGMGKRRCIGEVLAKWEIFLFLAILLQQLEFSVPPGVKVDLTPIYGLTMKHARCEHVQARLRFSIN
hERG, sequence (Q12809 whole entry): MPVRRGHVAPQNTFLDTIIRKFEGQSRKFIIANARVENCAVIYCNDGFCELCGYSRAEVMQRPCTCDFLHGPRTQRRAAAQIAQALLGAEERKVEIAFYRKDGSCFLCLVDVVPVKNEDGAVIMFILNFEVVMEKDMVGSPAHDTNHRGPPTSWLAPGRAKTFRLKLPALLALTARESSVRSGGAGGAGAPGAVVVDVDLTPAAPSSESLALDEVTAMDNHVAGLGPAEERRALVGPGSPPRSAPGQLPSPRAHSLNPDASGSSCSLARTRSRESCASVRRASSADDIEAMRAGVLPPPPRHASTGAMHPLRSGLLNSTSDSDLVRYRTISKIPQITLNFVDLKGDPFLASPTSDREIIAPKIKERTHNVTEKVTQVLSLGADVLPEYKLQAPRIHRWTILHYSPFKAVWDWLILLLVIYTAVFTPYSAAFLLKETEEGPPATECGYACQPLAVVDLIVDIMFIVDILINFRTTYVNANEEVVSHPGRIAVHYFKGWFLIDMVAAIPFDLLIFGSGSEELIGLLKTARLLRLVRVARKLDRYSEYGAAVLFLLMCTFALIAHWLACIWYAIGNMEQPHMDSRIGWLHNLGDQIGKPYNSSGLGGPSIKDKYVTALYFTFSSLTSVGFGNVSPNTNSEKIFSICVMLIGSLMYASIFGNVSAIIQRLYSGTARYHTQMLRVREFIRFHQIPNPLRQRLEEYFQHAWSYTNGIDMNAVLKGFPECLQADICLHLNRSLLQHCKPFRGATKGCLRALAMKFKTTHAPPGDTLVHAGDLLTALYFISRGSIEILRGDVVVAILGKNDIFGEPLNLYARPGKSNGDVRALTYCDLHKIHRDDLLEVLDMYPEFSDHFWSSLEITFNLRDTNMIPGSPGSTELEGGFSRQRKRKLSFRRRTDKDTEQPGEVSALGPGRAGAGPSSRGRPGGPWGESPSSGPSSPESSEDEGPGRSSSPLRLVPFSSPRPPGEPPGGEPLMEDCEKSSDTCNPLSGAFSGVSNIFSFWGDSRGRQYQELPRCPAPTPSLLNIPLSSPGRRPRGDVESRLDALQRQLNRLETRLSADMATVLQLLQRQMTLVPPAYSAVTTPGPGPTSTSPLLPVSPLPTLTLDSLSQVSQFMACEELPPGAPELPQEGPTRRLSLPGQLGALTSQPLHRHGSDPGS
CYP2C8, sequence (P10632 whole entry): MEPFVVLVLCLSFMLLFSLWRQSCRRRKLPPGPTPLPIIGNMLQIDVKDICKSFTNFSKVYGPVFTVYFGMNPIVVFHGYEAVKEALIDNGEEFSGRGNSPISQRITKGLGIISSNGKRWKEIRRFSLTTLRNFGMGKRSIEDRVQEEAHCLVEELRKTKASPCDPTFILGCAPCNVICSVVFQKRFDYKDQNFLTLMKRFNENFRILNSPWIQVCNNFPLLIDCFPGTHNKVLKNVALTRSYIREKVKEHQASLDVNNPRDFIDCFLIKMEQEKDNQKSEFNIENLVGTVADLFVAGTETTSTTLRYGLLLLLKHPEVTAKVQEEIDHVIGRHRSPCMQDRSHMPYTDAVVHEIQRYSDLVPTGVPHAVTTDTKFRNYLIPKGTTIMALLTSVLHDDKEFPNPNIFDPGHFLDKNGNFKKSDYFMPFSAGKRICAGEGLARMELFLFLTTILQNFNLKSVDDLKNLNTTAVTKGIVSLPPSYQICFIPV
CYP2B6, sequence (P20813 whole entry): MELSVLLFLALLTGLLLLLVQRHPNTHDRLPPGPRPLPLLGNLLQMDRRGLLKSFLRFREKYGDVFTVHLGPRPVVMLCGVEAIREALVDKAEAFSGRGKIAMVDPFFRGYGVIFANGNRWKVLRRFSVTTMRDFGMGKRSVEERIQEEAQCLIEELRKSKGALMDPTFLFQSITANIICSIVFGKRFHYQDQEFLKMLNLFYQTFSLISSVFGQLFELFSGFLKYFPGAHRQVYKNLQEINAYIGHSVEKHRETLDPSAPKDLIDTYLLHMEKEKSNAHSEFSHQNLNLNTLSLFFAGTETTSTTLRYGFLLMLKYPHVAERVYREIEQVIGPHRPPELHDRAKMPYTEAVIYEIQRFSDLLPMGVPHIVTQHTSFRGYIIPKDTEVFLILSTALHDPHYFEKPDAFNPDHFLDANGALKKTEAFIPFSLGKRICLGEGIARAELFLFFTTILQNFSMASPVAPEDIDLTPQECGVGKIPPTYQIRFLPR
CYP2C9, sequence (P11712 whole entry): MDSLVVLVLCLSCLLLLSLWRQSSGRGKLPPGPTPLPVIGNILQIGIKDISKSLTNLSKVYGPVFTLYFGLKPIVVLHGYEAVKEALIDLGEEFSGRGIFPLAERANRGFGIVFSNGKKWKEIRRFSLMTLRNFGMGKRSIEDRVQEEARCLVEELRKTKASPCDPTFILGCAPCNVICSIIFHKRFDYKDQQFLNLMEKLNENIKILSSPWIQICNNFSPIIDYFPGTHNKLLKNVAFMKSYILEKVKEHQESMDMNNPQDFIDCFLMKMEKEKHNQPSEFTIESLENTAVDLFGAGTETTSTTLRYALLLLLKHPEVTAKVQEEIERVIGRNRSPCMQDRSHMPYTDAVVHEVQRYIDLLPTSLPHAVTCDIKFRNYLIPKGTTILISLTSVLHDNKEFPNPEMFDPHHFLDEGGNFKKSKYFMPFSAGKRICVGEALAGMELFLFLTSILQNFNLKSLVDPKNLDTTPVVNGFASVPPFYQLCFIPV

## COc1cc2cc(c1Cl)N(C)C(=O)C[C@H](OC(=O)[C@H](C)N(C)C(=O)CCSSC[C@H](NC(=O)[C@@H]1CSSC[C@H](NC(=O)[C@H](N)Cc3ccccc3)C(=O)N[C@@H](Cc3ccc(O)cc3)C(=O)N[C@H](Cc3c[nH]c4ccccc34)C(=O)N[C@@H](CCCCN)C(=O)N[C@@H]([C@@H](C)O)C(=O)N1)C(N)=O)[C@]1(C)O[C@H]1[C@H](C)[C@@H]1C[C@@](O)(NC(=O)O1)[C@H](OC)/C=C/C=C(\C)C2 [Conjugate 57]
NCI-H69 SCLC tumors
  H69 tumor DM-1 levels: 243 nM
CYP1A2
  pIC50: < 5.00
CYP2D6
  pIC50: < 5.00
CYP2C19
  pIC50: < 5.00
CYP2B6
  pIC50: < 5.00
CYP2C8
  pIC50: < 5.00
CYP3A4; CYP3A4 Midazolam
  pIC50: < 5.00
CYP3A4; CYP3A4 Testosterone
  pIC50: < 5.00
CYP2C9
  pIC50: < 5.00
[1]
  proliferation of MCF-7 cells: reduces the proliferation of MCF-7 cells
hERG
  inhibition of hERG: no inhibition
SSTR2; [4]
  SSTR2 internalization distribution of staining: significantly different results from BT-984 and naïve at 4 hr, 24 hr, and 72 hours
  SSTR2 receptor internalization intensity of staining: significantly different results from scrambled peptide version of compound 57 (BT-984) and naïve at 1 hr, 4 hr, and 72 hours
SSTR2; Conjugate 57 2 mg/kg, Octreotide 1.4 mg/kg
  SSTR2 internalization compared with octreotide: caused more SSTR2 internalization than octreotide alone
[2]
  activity against the panel of GPCRs: no activity
[3]
  clearance in human predicted by allometric scaling: low clearance
